Consider one compound from patent US20110092592A1, “DIAGNOSIS AND TREATMENT OF HEPATIC DISORDER” (priority 2008, published 2011).

Molecules are shown by their SMILES.

The subject of one assay is patients with NASH. The assay can be described thus: Example 4: EPA-E in NASH patients grouped by adiponectin gene SNP276 genotype, one year. In kind it is in vivo, human. Particulars: for NAS scores (Kleiner et al.): 900 mg twice a day, one year. On the procedure:
There are three genotypes for the adiponectin gene SNP276, the T/T, G/T and G/G genotypes, and humans with the G/G genotype are said to have a lower blood adiponectin level than those with the T/T genotype.
To a group of patients with NASH having the adiponectin gene SNP276 which is of the G/G genotype and a group of patients with NASH having the adiponectin gene SNP276 which is of the genotype other than the G/G genotype (each group comprising 15 cases), 900 mg of EPA-E is administered twice a day for one year. After the lapse of one year, therapeutic effects are evaluated by the NAS scoring of Kleiner et al. In both of the group of patients with NASH having the G/G genotype and the group of patients with NASH having the genotype other than the G/G genotype, NAS scores are improved owing to the administration of the drug for one year.

Assay [1] relates to subjects affirmatively diagnosed as having NASH. Put plainly: Example 1: EPA-E group vs placebo control group in NASH subjects, one year. In kind it is in vivo, human. On the procedure: Subjects affirmatively diagnosed as having NASH are divided into two groups (each comprising 15 cases), namely the EPA-E group and the control group, then the groups are caused to take EPADEL S900 (containing 900 mg of EPA-E) and a placebo, respectively, twice a day. Doses are modified as appropriate to the subjects' conditions. Following the method described in American Journal of Gastroenterology 2001, Vol. 96, pp. 2711-2717 with respect to the criteria for diagnosing subjects, monitoring, histological testing, statistic analysis, and so forth, blood chemistry tests on ALT, AST, and the like are performed and the plasma fatty acid composition is determined over a dosage period of one year, and liver biopsy is conducted at the end of dosage, so as to make histological evaluations.
Of the EPA-E group, 15 cases are sorted into two groups, one (“effective” group) comprising the cases in which the score in accordance with the method of Brunt et al. is changed after the administration of the drug from that before the administration by 1 or 2, and the other (“ineffective” group) comprising the cases in which the score after the administration is not changed from that before the administration, and analysis is conducted on the change in the plasma fatty acid composition as determined over the dosage period of one year. The OA/SA ratio before the administration is not different between the effective group and the ineffective group. […] The reduction rate of the OA/SA ratio in two months is calculated by the equation: reduction rate (%)=[(OA/SA ratio before start of administration)−(OA/SA ratio two months after start of administration)]/OA/SA ratio before start of administration×100.

A further assay deals with NASH. Particulars: 2700 mg/day for 12 months; Non-Patent Literature 3; cited from earlier work.
Assay [2] has as its system patients with NASH having liver fibrosis. Put plainly: Example 3: EPA-E with dietary restriction and exercise therapy in NASH patients having liver fibrosis, one year. The following applies: one year after start of treatment. The assay is classed as in vivo, human. The protocol: Patients with NASH having liver fibrosis, that is to say, subjects suffering from fibrosis classified to stage 1 or 2 according to the fibrosis staging of Brunt et al. are collected (15 cases). Dietary restriction and exercise therapy are conducted so that the blood OA/SA ratio as monthly measured may be reduced in value from that measured previously, while 900 mg of EPA-E is administered twice a day, so as to do follow-up for one year. To the subjects in whom no change is recognized in OA/SA ratio, 900 mg of EPA-E is administered thrice a day.
The subjects in whom the reduction ratio of the OA/SA ratio in one month after the start of the administration is not lower than 5% are included in group A, while the subjects in whom the reduction ratio of the OA/SA ratio in one month after the start of the administration is lower than […] are included in group B. The reduction rate of the OA/SA ratio in one month is calculated by the equation: reduction rate (%)=[(OA/SA ratio before start of administration)−(OA/SA ratio one month after start of administration)]/OA/SA ratio before start of administration×100.

Setting [3] is: EPADEL S900 (900 mg EPA-E) twice a day, one year, vs before treatment and vs control group.
The mark [4] stands for this setting: effective group (Brunt score changed by 1 or 2).
Where [5] appears, read: ineffective group (Brunt score not changed).

As to `CC/C=C\C/C=C\C/C=C\C/C=C\C/C=C\CCCC(=O)OCC` [EPA-E, ethyl icosapentate ester], in the assay on patients with NASH (G/G genotype group vs other genotype group), the “degree of improvement in NAS score” value was “higher in the group of patients with NASH having the G/G genotype”. The “NAS scores (Kleiner et al.)” value in the assay with patients with NASH (G/G genotype group) and in the assay with patients with NASH (genotype other than G/G) was “improved” each time. In addition, the “mean value of ALT” value in assay [1] (setting [3]) was “reduced from those before treatment more markedly in comparison with the control group”. Also, the “mean value of AST” value in assay [1] (setting [3]) is recorded as “reduced from those before treatment more markedly in comparison with the control group”. The values for the TIMP-1 result in assay [1] (setting [4]) and in assay [1] (setting [5]) were “gradually reduced in value” and “hardly changed in value”, respectively. Also, the hyaluronic acid result in assay [1] (setting [4]) is listed as “gradually reduced in value”; in assay [1] (setting [5]), “hardly changed in value”. Also, the “type IV collagen” value in assay [1] (setting [4]) is given as “gradually reduced in value”; in assay [1] (setting [5]), “hardly changed in value”. Moreover, in assay [1] (effective group compared with ineffective group), the “reduction rate of the OA/SA ratio in two months” value is “high in the effective group as compared with the ineffective group”. The “plasma OA/SA ratio” value in assay [1] (for two months after start of administration, effective and ineffective groups) is given as “tends to be reduced in both groups”; in assay [1] (from the lapse of two months on, effective and ineffective groups) it was “tends more or less to be reduced”; in assay [1] (two months after start of administration, effective group vs ineffective group) it was “lower in value than in the ineffective group”. In assay [1] (liver biopsy at the end of one-year dosage), the “average fibrosis, fibrosis staging of Brunt et al.” value is on record as “from stage 2 to stage 1”. The “NASH (AST, ALT, inflammatory cytokines, oxidative stress markers, liver biopsy)” value in the assay on NASH was “amelioration of NASH”. Besides, the “fibrosis, staging of Brunt et al., by liver biopsy” value in assay [2] (group A (OA/SA reduction in one month not lower than 5%)) is recorded as “ameliorated from stage 2 to stage 1 or non-fibrotic stage, or again, from stage 1 to non-fibrotic stage”. The amelioration of fibrosis entry in assay [2] (group B (OA/SA reduction in one month lower than 1%)) was “slight”.
